In brackets after ≈: the same amount, converted by molar mass.
Tested on: Mycobacterium tuberculosis
Test: Antimycobacterial activity against Mycobacterium tuberculosis H37Rv by agar dilution method
Assay type: functional

Structure (SMILES) | MIC [µM]
NC1=C(c2nc(-c3ccccc3)no2)C(c2ccc(F)cc2)C2=C(O1)/C(=C/c1ccc(F)cc1)CCC2 (centres undefined) | 12.6 (≈ 6.26 µg/mL)
COc1ccc(/C=C2\CN(C)CC3=C2OC(N)=C(c2nc(-c4ccc(Cl)cc4)no2)C3c2ccc(OC)cc2)cc1 (centres undefined) | 22 (≈ 12.5 µg/mL)
CC[C@@H](CO)NCCN[C@@H](CC)CO [ETHAMBUTOL] | 7.64 (≈ 1.56 µg/mL)
Cc1ccccc1/C=C1\CCCC2=C1OC(N)=C(c1nc(-c3ccccc3)no1)C2c1ccccc1C (centres undefined) | > 25
N#CC1=C(N)OC2=C(CCC/C2=C\c2ccccc2)C1c1ccccc1 (centres undefined) | > 25
Cc1ccccc1/C=C1\CN(C)CC2=C1OC(N)=C(c1nc(-c3ccc(Cl)cc3)no1)C2c1ccccc1C (centres undefined) | 11.6 (≈ 6.25 µg/mL)
CN1CC2=C(OC(N)=C(c3nc(-c4ccc(Cl)cc4)no3)[C@@H]2c2cccc(F)c2)/C(=C/c2cccc(F)c2)C1 | 0.73 (≈ 0.398 µg/mL)
CN1CC2=C(OC(N)=C(c3nc(-c4ccc(Cl)cc4)no3)C2c2ccc(Cl)cc2Cl)/C(=C/c2ccc(Cl)cc2Cl)C1 (centres undefined) | 0.31 (≈ 0.201 µg/mL)
CO[C@H]1/C=C/O[C@@]2(C)Oc3c(C)c(O)c4c(O)c(c(/C=N/N5CCN(C)CC5)c(O)c4c3C2=O)NC(=O)/C(C)=C\C=C\[C@H](C)[C@H](O)[C@@H](C)[C@@H](O)[C@@H](C)[C@H](OC(C)=O)[C@@H]1C [RIFAMPIN] | 0.12 (≈ 0.0988 µg/mL)
COc1ccccc1/C=C1\CN(C)CC2=C1OC(N)=C(c1nc(-c3ccc(Cl)cc3)no1)C2c1ccccc1OC (centres undefined) | 5.5 (≈ 3.13 µg/mL)
N#CC1=C(N)OC2=C(CCC/C2=C\c2ccc(Cl)cc2)C1c1ccc(Cl)cc1 (centres undefined) | > 25
COc1ccccc1/C=C1\CCCC2=C1OC(N)=C(c1nc(-c3ccccc3)no1)C2c1ccccc1OC (centres undefined) | 24.1 (≈ 12.5 µg/mL)
COc1ccc(/C=C2\CCCC3=C2OC(N)=C(C#N)C3c2ccc(OC)cc2)cc1 (centres undefined) | > 25
N#CC1=C(N)OC2=C(CCC/C2=C\c2ccccc2Cl)C1c1ccccc1Cl (centres undefined) | > 25
CN1CC2=C(OC(N)=C(c3nc(-c4ccc(Cl)cc4)no3)C2c2ccccc2)/C(=C/c2ccccc2)C1 (centres undefined) | 12.3 (≈ 6.25 µg/mL)
Cc1ccc(/C=C2\CN(C)CC3=C2OC(N)=C(c2nc(-c4ccc(Cl)cc4)no2)C3c2ccc(C)cc2)cc1 (centres undefined) | 3.28 (≈ 1.76 µg/mL)
COc1ccc(/C=C2\CCCC3=C2OC(N)=C(c2nc(-c4ccccc4)no2)[C@@H]3c2ccc(OC)cc2)cc1 | 24.1 (≈ 12.5 µg/mL)
Cc1ccc(/C=C2\CCCC3=C2OC(N)=C(C#N)C3c2ccc(C)cc2)cc1 (centres undefined) | > 25
CN1CC2=C(OC(N)=C(c3nc(-c4ccc(Cl)cc4)no3)C2c2ccc(Cl)cc2)/C(=C/c2ccc(Cl)cc2)C1 (centres undefined) | 0.35 (≈ 0.202 µg/mL)
NC1=C(c2nc(-c3ccccc3)no2)C(c2cccc(F)c2)C2=C(O1)/C(=C/c1cccc(F)c1)CCC2 (centres undefined) | 12.6 (≈ 6.26 µg/mL)
NC1=C(c2nc(-c3ccccc3)no2)C(c2ccc(Cl)cc2)C2=C(O1)/C(=C/c1ccc(Cl)cc1)CCC2 (centres undefined) | 23.7 (≈ 12.5 µg/mL)
NNC(=O)c1ccncc1 [ISONIAZID] | 0.36 (≈ 0.0494 µg/mL)
N#CC1=C(N)OC2=C(CCC/C2=C\c2ccc(F)cc2)C1c1ccc(F)cc1 (centres undefined) | > 25
CN1CC2=C(OC(N)=C(c3nc(-c4ccc(Cl)cc4)no3)C2c2ccc(N(C)C)cc2)/C(=C/c2ccc(N(C)C)cc2)C1 (centres undefined) | 5.26 (≈ 3.13 µg/mL)
